Measurements reported in ChEMBL document CHEMBL6120985, “Discovery of a potent PARP1 PROTAC as a chemosensitizer for the treatment of colorectal cancer” (Eur J Med Chem, 2025).
pIC50: −log10 of the molar value. Calls of active or inactive are those of the source. The rule behind the calls is not given here.

Assays:
[1] = target: T1, Protein cereblon/Poly [ADP-ribose] polymerase 1 (Homo sapiens, UniProt P09874+Q96SW2); assay: PROTAC activity at CRBN/PARP1 in human HCT-116 cells assessed as decrease in PARP1 level at 1 uM measured after 4 hrs; type: cell-based
Target sequence in this assay (P09874 2-1014 limits assumed): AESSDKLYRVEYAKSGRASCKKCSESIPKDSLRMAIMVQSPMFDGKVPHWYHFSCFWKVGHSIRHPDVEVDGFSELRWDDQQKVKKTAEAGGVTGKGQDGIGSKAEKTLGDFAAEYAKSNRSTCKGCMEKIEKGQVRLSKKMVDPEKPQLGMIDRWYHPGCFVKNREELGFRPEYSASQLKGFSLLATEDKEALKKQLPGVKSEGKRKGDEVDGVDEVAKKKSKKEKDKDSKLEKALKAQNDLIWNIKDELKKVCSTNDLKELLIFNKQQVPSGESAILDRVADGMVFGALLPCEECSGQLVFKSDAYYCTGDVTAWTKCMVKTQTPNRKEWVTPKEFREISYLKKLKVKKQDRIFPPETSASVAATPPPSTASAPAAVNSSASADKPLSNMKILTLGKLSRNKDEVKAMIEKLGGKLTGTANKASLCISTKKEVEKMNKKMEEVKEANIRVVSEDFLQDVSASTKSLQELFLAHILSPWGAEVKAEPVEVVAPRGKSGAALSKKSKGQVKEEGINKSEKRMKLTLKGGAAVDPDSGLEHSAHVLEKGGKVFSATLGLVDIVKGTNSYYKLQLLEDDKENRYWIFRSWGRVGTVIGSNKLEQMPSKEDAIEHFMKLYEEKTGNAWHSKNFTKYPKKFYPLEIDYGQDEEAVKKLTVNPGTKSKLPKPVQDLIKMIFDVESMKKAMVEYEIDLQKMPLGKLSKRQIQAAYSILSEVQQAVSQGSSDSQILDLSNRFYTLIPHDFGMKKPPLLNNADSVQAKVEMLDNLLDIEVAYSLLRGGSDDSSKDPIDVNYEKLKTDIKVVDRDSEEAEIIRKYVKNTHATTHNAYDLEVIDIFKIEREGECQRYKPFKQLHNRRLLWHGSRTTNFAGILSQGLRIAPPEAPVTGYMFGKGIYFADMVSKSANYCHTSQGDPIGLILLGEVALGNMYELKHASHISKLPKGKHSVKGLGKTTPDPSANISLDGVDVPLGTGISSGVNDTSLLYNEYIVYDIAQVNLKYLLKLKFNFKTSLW
Target sequence in this assay (Q96SW2 whole entry partner): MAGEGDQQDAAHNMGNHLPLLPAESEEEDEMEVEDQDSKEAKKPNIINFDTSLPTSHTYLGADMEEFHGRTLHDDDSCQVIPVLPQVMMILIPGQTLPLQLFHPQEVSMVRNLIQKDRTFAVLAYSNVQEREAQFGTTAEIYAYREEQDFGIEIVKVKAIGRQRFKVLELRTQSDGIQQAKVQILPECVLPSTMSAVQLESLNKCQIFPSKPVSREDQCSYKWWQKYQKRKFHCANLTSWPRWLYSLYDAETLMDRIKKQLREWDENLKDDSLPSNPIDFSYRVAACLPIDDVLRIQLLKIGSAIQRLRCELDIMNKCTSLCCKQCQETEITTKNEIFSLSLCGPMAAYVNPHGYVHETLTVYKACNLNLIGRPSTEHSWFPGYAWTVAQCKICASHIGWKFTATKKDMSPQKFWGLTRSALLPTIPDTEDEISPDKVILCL

[2] = target: T1, Protein cereblon/Poly [ADP-ribose] polymerase 1; assay: PROTAC activity at CRBN/PARP1 in human HCT-116 cells assessed as degradation of PARP1 measured after 24 hrs; type: cell-based
Target sequence in this assay (P09874 whole entry): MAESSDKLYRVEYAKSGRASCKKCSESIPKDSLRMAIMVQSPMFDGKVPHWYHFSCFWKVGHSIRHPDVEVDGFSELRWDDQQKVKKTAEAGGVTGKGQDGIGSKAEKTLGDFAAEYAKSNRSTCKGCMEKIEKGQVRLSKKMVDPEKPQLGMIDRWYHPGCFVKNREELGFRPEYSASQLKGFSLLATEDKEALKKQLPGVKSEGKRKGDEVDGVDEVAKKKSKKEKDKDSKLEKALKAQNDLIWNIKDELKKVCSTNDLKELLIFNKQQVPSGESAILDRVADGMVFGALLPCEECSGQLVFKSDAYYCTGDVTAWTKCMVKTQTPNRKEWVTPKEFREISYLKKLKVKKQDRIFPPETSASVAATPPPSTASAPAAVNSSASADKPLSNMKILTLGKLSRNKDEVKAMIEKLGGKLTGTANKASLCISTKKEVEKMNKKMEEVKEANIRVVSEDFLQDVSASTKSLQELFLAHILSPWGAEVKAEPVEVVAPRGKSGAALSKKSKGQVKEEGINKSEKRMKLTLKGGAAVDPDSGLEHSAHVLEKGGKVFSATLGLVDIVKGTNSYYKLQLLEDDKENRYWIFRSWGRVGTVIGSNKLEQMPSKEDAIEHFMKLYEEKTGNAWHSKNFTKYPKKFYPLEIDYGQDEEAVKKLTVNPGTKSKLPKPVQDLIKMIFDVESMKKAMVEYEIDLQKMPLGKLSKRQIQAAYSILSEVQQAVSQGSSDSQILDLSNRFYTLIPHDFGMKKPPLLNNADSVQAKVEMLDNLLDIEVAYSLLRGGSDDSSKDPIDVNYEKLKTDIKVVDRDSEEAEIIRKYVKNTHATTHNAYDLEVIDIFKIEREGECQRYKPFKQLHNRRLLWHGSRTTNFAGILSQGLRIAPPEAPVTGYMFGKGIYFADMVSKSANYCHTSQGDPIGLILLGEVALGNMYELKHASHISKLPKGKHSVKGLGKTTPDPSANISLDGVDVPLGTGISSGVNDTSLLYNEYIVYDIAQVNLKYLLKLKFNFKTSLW
Target sequence in this assay (Q96SW2 whole entry): as the sequence (Q96SW2 whole entry partner) above

[3] = target: T1, Protein cereblon/Poly [ADP-ribose] polymerase 1; assay: PROTAC activity at CRBN/PARP1 in human HCT-116 cells assessed as degradation of PARP1 at upto 10 uM measured after 24 hrs relative to control; type: cell-based
Target sequence in this assay (P09874 2-1014 limits assumed): as the sequence (P09874 2-1014 limits assumed) above
Target sequence in this assay (Q96SW2 whole entry partner): as the sequence (Q96SW2 whole entry partner) above

SW-620 [4] = assay: Cytotoxicity against human SW620 cells assessed as inhibition of cell growth measured after 72 hrs by CCK-8 method; type: functional, cell-based; conditions: SW-620, 72 h
LoVo = assay: Cytotoxicity against human LoVo cells assessed as inhibition of cell growth measured after 72 hrs by CCK-8 method; type: functional, cell-based
SW-620 [5] = assay: Potency index, ratio of SK-575 IC50 to test compound IC50 for cytotoxicity against human SW620 cells assessed as inhibition of cell growth measured after 72 hrs by CCK-8 method; type: functional
[6] = Potency index, ratio of SK-575 IC50 to test compound IC50 for cytotoxicity against human LoVo cells assessed as inhibition of cell growth measured after 72 hrs by CCK-8 method; type: functional
[7] = Cytotoxicity against HEK293T cells assessed as inhibition of cell growth measured after 72 hrs by CCK-8 method; type: toxicity, cell-based, HEK-293T; conditions: human
HCT-116 [8] = assay: Antagonistic antiproliferative activity against human HCT-116 cells assessed as combination index at 1 uM measured after 72 hrs in presence of 0.625 nM of SN-38 by CCK-8 method; type: functional
HCT-116 [9] = assay: Synergistic antiproliferative activity against human HCT-116 cells assessed as combination index at 0.5 uM measured after 72 hrs in presence of 0.625 nM of SN-38 by CCK-8 method; type: functional
HCT-116 [10] = assay: Synergistic antiproliferative activity against human HCT-116 cells assessed as combination index at 0.5 uM measured after 72 hrs in presence of 2.5 nM of SN-38 by CCK-8 method; type: functional
HCT-116 [11] = assay: Synergistic antiproliferative activity against human HCT-116 cells assessed as combination index at 0.5 uM measured after 72 hrs in presence of 10 nM of SN-38 by CCK-8 method; type: functional
HCT-116 [12] = assay: Synergistic antiproliferative activity against human HCT-116 cells assessed as combination index at 1 uM measured after 72 hrs in presence of 1.25 nM of SN-38 by CCK-8 method; type: functional
HCT-116 [13] = assay: Synergistic antiproliferative activity against human HCT-116 cells assessed as combination index at 1 uM measured after 72 hrs in presence of 2.5 nM of SN-38 by CCK-8 method; type: functional
HCT-116 [14] = assay: Synergistic antiproliferative activity against human HCT-116 cells assessed as combination index at 1 uM measured after 72 hrs in presence of 10 nM of SN-38 by CCK-8 method; type: functional
HCT-116 [15] = assay: Synergistic antiproliferative activity against human HCT-116 cells assessed as combination index at 2 uM measured after 72 hrs in presence of 2.5 nM of SN-38 by CCK-8 method; type: functional
HCT-116 [16] = assay: Synergistic antiproliferative activity against human HCT-116 cells assessed as combination index at 2 uM measured after 72 hrs in presence of 5 nM of SN-38 by CCK-8 method; type: functional
HCT-116 [17] = assay: Synergistic antiproliferative activity against human HCT-116 cells assessed as combination index at 2 uM measured after 72 hrs in presence of 10 nM of SN-38 by CCK-8 method; type: functional
HCT-116 [18] = assay: Synergistic antiproliferative activity against human HCT-116 cells assessed as combination index at 4 uM measured after 72 hrs in presence of 1.25 nM of SN-38 by CCK-8 method; type: functional
HCT-116 [19] = assay: Synergistic antiproliferative activity against human HCT-116 cells assessed as combination index at 4 uM measured after 72 hrs in presence of 5 nM of SN-38 by CCK-8 method; type: functional
HCT-116 [20] = assay: Induction of apoptosis in human HCT-116 cells assessed as late apoptotic cells at 1 uM measured after 72 hrs by annexin V/FITC and PI staining based flow cytometry analysis (reference value: 6.80%); type: functional
HCT-116 [21] = assay: Induction of apoptosis in human HCT-116 cells assessed as necrotic cells at 1 uM measured after 72 hrs by annexin V/FITC and PI staining based flow cytometry analysis (reference value: 0.16%); type: functional
HCT-116 [22] = assay: Induction of cell cycle arrest in human HCT-116 cells assessed as accumulation of cells at G2/M phase at 1 uM measured after 72 hrs in presence of SN-38 by PI staining based flow cytometry analysis; type: functional
HCT-116 [23] = assay: Effect on BRCA level in human HCT-116 cells at 1 uM in presence of SN-38 by Western blot analysis; type: functional, cell-based
HCT-116 [24] = assay: Upregulation of CDK1 level in human HCT-116 cells at 1 uM in presence of SN-38 by Western blot analysis; type: functional, cell-based

Structure (SMILES): NC(=O)c1cccc2cn(-c3ccc([C@@H]4CCCN(CCC5CCN(CCC6CCN(CC7CCN(c8ccc9c(c8)C(=O)N(C8CCC(=O)NC8=O)C9=O)CC7)CC6)CC5)C4)cc3)nc12 (stereo not given in full)
- Activity [1]: Active
- DC50 [2]: 58.1 nM
- Emax [3]: 96.5%
- pIC50 (SW-620 [4]): 5.79
- pIC50 (LoVo): 5.55
- Ratio IC50 (SW-620 [5]): <6
- Ratio IC50 [6]: <3.5
- IC50 at 72 h [7]: 4130 nM
- CI (HCT-116 [8]): 1.003
- CI (HCT-116 [9]): 0.967
- CI (HCT-116 [10]): 0.879
- CI (HCT-116 [11]): 0.753
- CI (HCT-116 [12]): 0.969
- CI (HCT-116 [13]): 0.823
- CI (HCT-116 [14]): 0.698
- CI (HCT-116 [15]): 0.856
- CI (HCT-116 [16]): 0.752
- CI (HCT-116 [17]): 0.766
- CI (HCT-116 [18]): 0.574
- CI (HCT-116 [19]): 0.457
- Activity (HCT-116 [20]): 10.4%
- Activity (HCT-116 [21]): 2.01%
- Activity (HCT-116 [22]): Active
- Activity (HCT-116 [23]): inactive
- Activity (HCT-116 [24]): Active
